In PMC4877059 (Journal of medicinal chemistry, 2013):
Where two headings read alike, the source gives them in different places.

Key:
[1] = 15 min; cited from earlier work
[2] = tested on: NPS-induced hyperlocomotion; conditions: 50 mpk IP, 90 minute mouse model; cited from earlier work
NPSR [3] = target: T1, NPSR (Homo sapiens, UniProt Q6W5P4); assay: ERK assay; assay type: cell-based
T1 sequence (Q6W5P4 1-371): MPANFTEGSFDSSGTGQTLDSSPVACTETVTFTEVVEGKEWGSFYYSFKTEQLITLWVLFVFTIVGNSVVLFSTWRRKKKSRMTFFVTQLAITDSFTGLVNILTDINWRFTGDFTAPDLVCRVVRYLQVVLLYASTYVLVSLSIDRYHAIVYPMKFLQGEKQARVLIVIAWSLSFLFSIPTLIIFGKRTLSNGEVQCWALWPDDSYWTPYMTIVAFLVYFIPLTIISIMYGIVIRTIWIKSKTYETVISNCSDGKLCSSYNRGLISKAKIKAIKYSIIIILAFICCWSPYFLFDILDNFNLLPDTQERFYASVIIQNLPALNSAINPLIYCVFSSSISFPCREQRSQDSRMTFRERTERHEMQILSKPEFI

NPSR [4] = target: T1, NPSR; assay: Calcium mobilization assay in CHO-NPSR cells; assay type: cell-based
[5] = Stability after incubation in mouse liver microsomes; conditions: 0 min
[6] = Mouse pharmacokinetics, 10 mpk IP; assay type: in vivo
Solubility in PBS = assay type: physicochemical; conditions: aqueous buffer
Wistar rats [7] = assay: Rat palatable food intake model; assay type: in vivo
rats = conditions: cited from earlier work
55 targets = assay: Profiling at 10 µM against 55 targets
ERK phosphorylation = conditions: rats, 1 mpk; cited from earlier work
NPSR [8] = target: T1, NPSR; assay: cAMP assay; assay type: cell-based; conditions: relative to 1b
[9] = target: Human Recombinant µ-Opioid Receptor OPRM1 (Homo sapiens, UniProt P35372); assay type: binding
Human Recombinant µ-Opioid Receptor OPRM1, sequence (P35372 whole entry): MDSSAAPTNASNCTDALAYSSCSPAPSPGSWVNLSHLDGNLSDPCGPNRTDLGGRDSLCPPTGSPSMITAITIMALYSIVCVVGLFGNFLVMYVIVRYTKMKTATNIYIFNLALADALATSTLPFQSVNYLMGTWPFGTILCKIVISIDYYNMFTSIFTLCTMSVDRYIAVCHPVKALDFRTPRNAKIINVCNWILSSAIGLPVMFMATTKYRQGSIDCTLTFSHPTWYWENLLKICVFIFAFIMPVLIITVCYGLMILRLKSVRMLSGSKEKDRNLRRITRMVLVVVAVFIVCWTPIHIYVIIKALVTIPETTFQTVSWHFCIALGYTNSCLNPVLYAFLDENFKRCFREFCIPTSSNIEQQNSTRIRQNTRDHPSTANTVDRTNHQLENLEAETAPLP

NPSR [10] = target: T1, NPSR; assay: [125I] Y10-hNPS binding; conditions: relative to 1b
NPSR [11] = conditions: 30 mpk IP, discrete regions of the rat brain; cited from earlier work
[12] = 0 h
[13] = Stability in aqueous buffers; assay type: physicochemical; conditions: HBBS or PBS, 48 hours
Wistar rats [14] = conditions: rat food intake model; cited from earlier work

O=C(NCc1ccc(F)cc1)N1CCN2C(=O)OC(c3ccccc3)(c3ccccc3)C2C1 (centres unmarked) [1b, 3-oxo-1,1-diphenyl-tetrahydro-oxazolo[3,4-a]pyrazine-7-carboxylic acid 4-fluoro-benzylamide]
brain level [1]: ~6000 nM
reduction of NPS-induced hyperlocomotion [2]: about 50%

Cc1nc2ccccn2c1P(=S)(c1ccccc1)c1ccccc1 [12d, 3-(Diphenylphosphorothioyl)-2-methylimidazo[1,2-a]pyridine]
IC50 (NPSR [3]; ERK IC50, Table 1, CHO-NPS cells, 1 nM NPS (EC80), one experiment in duplicate): 30 nM

C[n+]1cc(P(=S)(c2ccccc2)c2ccccc2)n2ccccc21 [13a, 3-(Diphenylphosphorothioyl)-1-methylimidazo[1,2-a]pyridin-1-ium]
ERK assay inhibition at the highest concentration tested (NPSR [3]; Table 1 footnote b, 50 µM): <50% ^b

Cc1c(P(=S)(c2ccccc2)c2ccccc2)n2ccccc2[n+]1CCCc1ccccc1 [20d, 3-(Diphenylphosphorothioyl)-2-methyl-1-(3-phenylpropyl)imidazo[1,2-a]pyridin-1-ium]
IC50 (NPSR [4]; IC50 in the calcium assay): 1 nM
IC50 (NPSR [3]; IC50 in the ERK assay): 2 nM

Cc1c(P(=S)(c2ccccc2)c2ccccc2)n2ccccc2[n+]1C/C=C/c1ccccc1.[Br-] [20e, 1-Cinnamyl-3-(diphenylphosphorothioyl)-2-methylimidazo[1,2-a]pyridin-1-ium]
% parent compd remaining after incubation in mouse liver microsomes ([5]; with NADPH): 100%
% parent compd remaining after incubation in mouse liver microsomes ([5]; without NADPH): 94%
Brain concentration, mean ([6]; 10 mpk IP, 0 hr): BQL
Plasma concentration, mean ([6]; 10 mpk IP, 0 hr): BQL
Brain concentration, mean ([6]; 10 mpk IP, 0 hr, N=3): BQL
Plasma concentration, mean ([6]; 10 mpk IP, 0 hr, N=3): BQL
Brain concentration, mean ([6]; 10 mpk IP, 0.083 hr): 30 nmol/g
Brain concentration, mean ([6]; 10 mpk IP, 0.25 hr): 52 nmol/g
Brain concentration, mean ([6]; 10 mpk IP, 0.5 hr): 53 nmol/g
Brain concentration, mean ([6]; 10 mpk IP, 1 hr): 44 nmol/g
Brain concentration, mean ([6]; 10 mpk IP, 2 hr): 57 nmol/g
Brain concentration, mean ([6]; 10 mpk IP, 4 hr): 53 nmol/g
Brain concentration, mean ([6]; 10 mpk IP, 8 hr): 60 nmol/g
Brain concentration, mean ([6]; 10 mpk IP, 12 hr): 93 nmol/g
Brain concentration, mean ([6]; 10 mpk IP, 24 hr): 52 nmol/g
concentration at 1 h ([6]; plasma, ip, 10 mg/kg, Plasma concentration, mean, 10 mpk IP, 1 hr): 556 nM
concentration at 2 h ([6]; plasma, ip, 10 mg/kg, Plasma concentration, mean, 10 mpk IP, 2 hr): 386 nM
concentration at 4 h ([6]; plasma, ip, 10 mg/kg, Plasma concentration, mean, 10 mpk IP, 4 hr): 245 nM
concentration at 8 h ([6]; plasma, ip, 10 mg/kg, Plasma concentration, mean, 10 mpk IP, 8 hr): 214 nM
concentration at 12 h ([6]; plasma, ip, 10 mg/kg, Plasma concentration, mean, 10 mpk IP, 12 hr): 126 nM
concentration at 24 h ([6]; plasma, ip, 10 mg/kg, Plasma concentration, mean, 10 mpk IP, 24 hr): 54 nM
adverse reactions ([6]; single 10 mpk IP dose): No adverse reactions were observed
fold more potent than 1b in the calcium assay (NPSR [4]; relative to 1b): 5 fold
solubility kinetic (Solubility in PBS; kinetic from dmso stock): > 150 µM
solubility thermodynamic (Solubility in PBS; thermodynamic from solid): ~45 µM
reversal of NPS-induced suppression of palatable food intake (Wistar rats [7]; single 10 µg icv, before 10 µg NPS icv, 15, 30 and 60 min): reverse the suppression of food intake
efficacy in rat alcohol models (rats; IP dose of 1.0 mpk): show efficacy
alcohol self administration in rats (rats; dose as low as 1 mpk): supression of alcohol self administartion
inhibition of control in seven of 55 targets (55 targets): > 90%
alcohol induced ERK phosphorylation in the central amygdala (ERK phosphorylation): reduce alcohol induced ERK phosphorylation
fold more potent than 1b in the cAMP assay (NPSR [8]): 9 fold
fold activity relative to naloxone or morphine, DAMGO displacement [9]: < 200 fold
fold more potent than 1b in the displacement assay (NPSR [10]): 5 fold

CCC(C)(CCN1CCOCC1)N(Cc1cc2ccccc2n(C)c1=O)C(=O)C1CCCCC1 (centres unmarked) [compound 2]
ex vivo occupancy of NPSR (NPSR [11]): high ex vivo occupancy of NPSR
% parent compd remaining after incubation in mouse liver microsomes [12]: 100%

Cc1c(P(=S)(c2ccccc2)c2ccccc2)[n+]2ccccc2n1C.[I-] [compound 7, 3-(diphenylphosphorothioyl)-1,2-dimethylimidazo[1,2-a]pyridin-1-ium]
chemical stability in aqueous buffers [13]: did not decompose to any other species

NPS: neuropeptide S, peptide sequence SFRNGVGTGMKKTSFQRAKS, endogenous agonist of NPSR [reference compound]
palatable food intake (Wistar rats [7]; 10 µg NPS icv, 15, 30 and 60 min): marked reduction in food intake

[D-Cys(tBU)^5]NPS
reversal of the anorectic effect of NPS (Wistar rats [14]): reverse the anorectic effect of NPS
